Test results as given in PMC2790607, “Finding of the Low Molecular Weight Inhibitors of Resuscitation Promoting Factor Enzymatic and Resuscitation Activity” (PLoS ONE, 2009).
In brackets after ≈: the same amount, converted by molar mass. Like-named read-outs stand apart in the source and are kept apart here.

Experiments:
Micrococcus luteus = experiment: microbe, parasite or virus in culture; assay type: cell-based; conditions: Micrococcus luteus; lowest concentration which suppresses growth; determined during 24 hours; NI = no inhibition was observed
Rpf Sm [1] = molecular target: T1, Rpf Sm (Micrococcus luteus, UniProt O86308); experiment: Muralytic activity of Rpf, 4-MUF-3-NAG hydrolysis; assay type: biochemical, M. luteus
T1 construct: His-tag (inferred from the pET19b vector and the Ni2+-chelation purification); made in house; host or cells: E. coli HSM174 (DE3)
Experimental: The truncated form of M.luteus Rpf (RpfSm) was used for the analysis. The truncated protein contained conserved Rpf domain and additional 20 amino acids of the gene product, corresponding to the following amino acid sequence:
To determine a muralytic activity of the recombinant Rpfs', 4-methylumbelliferyl-β-D-N, N′, N″-triacetylchitotrioside (4-MUF-3-NAG) (“Sigma”, Germany) was applied. […] A number of experiments were performed in the presence of NPT compounds, in concentration range of 0.5–10 µg/ml. After 3 hours of incubation at 37°C, 2 µl of 10 M NaOH was added and the samples were frozen and kept at −20°C. […] The intensity of fluorescence was detected by the RF-5301PC fluorimeter (“SHIMADZU”, Japan) using excitation wavelength of 364 nm and a read-out of 448 nm.

ΔDUFRpf B [2] = molecular target: T2, ΔDUFRpf B (Mycobacterium tuberculosis, UniProt P9WG29); assay type: binding, M. tuberculosis
[3] = test system: M. smegmatis "non-culturable" cells; assay type: cell-based, Mycobacterium smegmatis; conditions: MPN assay
[4] = test system: M. tuberculosis "non-culturable" cells; assay type: cell-based, Mycobacterium tuberculosis; conditions: inhibitor 10 µg/ml
[5] = test system: Alcoholdehydrohenase(1.1.1.1); experiment: Alcoholdehydrogenase activity (NAD+ to NADH, OD340); assay type: biochemical; conditions: control 1.7
Experimental: (§1) Alcoholdehydrohenase(1.1.1.1) activity: ADH was dissolved in 50 mM phospahe buffer pH 7 at the concentration 10 µg/ml. The rate of the reaction was judged by transformation of NAD^+ (1 mM) into NADH+H^+. As the substrate ethanol was used. Activity was measured by OD340. Laccase(1.10.3.2) activity: Laccase was dissolved in the 50 mM citrate-phosphate buffer, pH4.5 at concentration 9 µg/ml. Pyrocatechin was used at concentration 11 µg/ml. Activity was measured by OD410. Trypsin(3.4.21.4) activity: The enzyme at concentration 8.0 µg/ml was dissolved in 50 mM Tris-HCl buffer pH 8.0. Concentration of the substrate (N-CBz-Gly-Gly-Arg-β-naphthylamide - Sigma-Aldrich)- 11 µg/ml. Registration of the kinetic curves was made fluorimetrically - excitation wavelength - 330 nm; emission - 420 nm. (0.02 MB DOC) Click here for additional data file.

Laccase(1.10.3.2) = experiment: Laccase activity (pyrocatechin, OD410); assay type: biochemical; conditions: control 3.6
Experimental: as §1

Trypsin(3.4.21.4) = experiment: Trypsin activity (fluorimetric); assay type: biochemical; conditions: control 10
Experimental: as §1

Rpf Sm [6] = molecular target: T1, Rpf Sm; conditions: inhibitor 2 and 4 µg/ml, Rpf Sm 40 µg/ml
ΔDUFRpf B [7] = molecular target: T2, ΔDUFRpf B; parameters: species or system M. tuberculosis; conditions: inhibitor 2 and 4 µg/ml, ΔDUFRpf B 60 µg/ml
M. smegmatis = assay type: cell-based, Mycobacterium smegmatis; conditions: at 0.1–1 µg/ml (not shown)

T1 sequence (O86308 42-134): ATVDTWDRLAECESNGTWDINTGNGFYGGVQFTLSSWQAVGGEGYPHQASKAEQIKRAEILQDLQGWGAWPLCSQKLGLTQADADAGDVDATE
T2 sequence (P9WG29 whole entry, looked up, stated change not applied): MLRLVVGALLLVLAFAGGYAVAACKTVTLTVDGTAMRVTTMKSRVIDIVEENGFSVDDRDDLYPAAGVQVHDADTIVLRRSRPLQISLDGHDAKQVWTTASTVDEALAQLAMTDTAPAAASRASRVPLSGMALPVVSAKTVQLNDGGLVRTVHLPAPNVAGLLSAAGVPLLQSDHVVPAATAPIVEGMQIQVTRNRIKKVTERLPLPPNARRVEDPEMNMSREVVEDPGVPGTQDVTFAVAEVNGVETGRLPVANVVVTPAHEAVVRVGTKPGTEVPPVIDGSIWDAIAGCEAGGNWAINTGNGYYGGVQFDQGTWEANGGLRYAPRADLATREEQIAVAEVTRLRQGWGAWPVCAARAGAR

Structure (SMILES): N#CSc1ccc(C(=O)c2ccccc2)cc1[N+](=O)[O-] [VII, 4-Benzoyl-2-nitrophenyl thiocyanate]
- MIC (Micrococcus luteus): 1 to 5 µg/mL (≈ 3.52 to 17.6 µM)
- IC50 (Rpf Sm [1]): 6.68 µM
- type of inhibition of Rpf-Sm muralytic activity (Lineweaver-Burk plot) (Rpf Sm [1]; substrate 3 to 24 µM, inhibitor 0.5 to 10 µg/ml): non-competitive inhibition
- interaction with the buried tryptophanes of ΔDUFRpfB (ΔDUFRpf B [2]; fluorescence studies): interacted with at least two exposed and one buried tryptophan
- accessible fraction of ΔDUFRpfB tryptophanes (fa) (ΔDUFRpf B [2]; modified Stern-Volmer equation, excitation 280 nm, emission 340 nm): ~65%
- concentrations active in suppressing resuscitation of M. smegmatis [3]: 0.1 to 1 µg/mL
- MPN, logarithmic transformation of cell concentration (cells/ml) ([4]; time 0 days): 3.48
- MPN, logarithmic transformation of cell concentration (cells/ml) ([4]; time 14 days): 3.48
- MPN, logarithmic transformation of cell concentration (cells/ml) ([4]; time 19 days): 3.48
- MPN, logarithmic transformation of cell concentration (cells/ml) ([4]; time 21 days): 3.86
- MPN, logarithmic transformation of cell concentration (cells/ml) ([4]; time 23 days): 5.38
- MPN, logarithmic transformation of cell concentration (cells/ml) ([4]; time 27 days): 6.18
- MPN, logarithmic transformation of cell concentration (cells/ml) ([4]; time 30 days): 6.18
- MPN, logarithmic transformation of cell concentration (cells/ml) ([4]; time 33 days): 6.18
- MPN, logarithmic transformation of cell concentration (cells/ml) ([4]; time 36 days): 6.18
- MPN, logarithmic transformation of cell concentration (cells/ml) ([4]; time 40 days): 6.18
- τ1/2, time needed to achieve a 50% level of substrate conversion, Alchoholdehydrohenase ([5]; compound 4 µg/ml): 1.75 s
- τ1/2, time needed to achieve a 50% level of substrate conversion, Alchoholdehydrohenase ([5]; compound 10 µg/ml): 1.7 s
- τ1/2, time needed to achieve a 50% level of substrate conversion, Laccase (Laccase(1.10.3.2); compound 4 µg/ml): 3.6 s
- τ1/2, time needed to achieve a 50% level of substrate conversion, Laccase (Laccase(1.10.3.2); compound 10 µg/ml): 3.5 s
- τ1/2, time needed to achieve a 50% level of substrate conversion, Trypsin (Trypsin(3.4.21.4); compound 4 µg/ml): 10 s
- τ1/2, time needed to achieve a 50% level of substrate conversion, Trypsin (Trypsin(3.4.21.4); compound 10 µg/ml): 10 s
- changes in the CD spectra of Rpf Sm (Rpf Sm [6]): did not produce significant changes
- changes in the CD spectra of ΔDUFRpf B (ΔDUFRpf B [7]): did not produce significant changes
- growth of active cells of M. smegmatis (M. smegmatis): did not inhibit growth
- melting point: 104 to 106 °C
